Measured values published in patent publication US20230201207A1, “COMBINATION CANCER THERAPY USING N2-QUINOLINE OR ISOQUINOLINE SUBSTITUTED PURINE DERIVATIVES” (SHANGHAI HUAYU BIOTECHNOLOGY CO., LTD., priority 2020, published 2023).

Assays:
[1] = Body weight and survival of CT-26 WT tumor-bearing BALB/c mice; assay type: in vivo; settings: for Average body weight: Anti-m-PD-1 10 mg/kg I.P., Compound A 40 mg/kg P.O.
Experimental: (§1) CT-26 WT cells were maintained at 37° C. in 5% CO2 in RPMI 1640 medium (10-040-CV, Corning cellgro) supplemented with 10% FBS (10270-106, GIBCO) and used before the 10th subculture. At Day 0, 45 BALB/c female mice, 5-6 weeks old, were each subcutaneously injected with about 200.0 μL. of the CT-26 WT cell medium containing about 5×10^5 cells.
(§2) At Day 9, 32 tumor-bearing mice were randomly allocated to four groups according to their tumor volumes, 8 mice per group. The rest were subject to euthanasia.
(§3) The four groups of animals were administered with an anti-m-PD-1 antibody (BE0146, BioXcell) in PBS (21-040-CVR, BioXcell) at 1.0 mg/mL, Compound A in saline at 4.0 mg/mL, the anti-m-PD-1 antibody in combination with Compound A, and the control vehicle (saline), respectively, at doses shown in Table 1 below.
(§4) Mice were observed every day for their physical conditions and activities, and mice body weight and tumor volume were measured every Tuesday, Thursday and Sunday. The tumor volume (V) was calculated as (length×width^2)/2.
(§5) At Day 23, mice were subject to euthanasia, from which tumors were collected, weighed and photographed. Mice body weights, tumor sizes and tumor weights were analyzed using the t-test in SPSS, and group differences were deemed statistically significant when the p-value was 0.05 or less.

PDGFR = assay: Inhibition of PDGFR phosphorylation; assay type: biochemical
Description: (§6) FLT3 is a class III receptor tyrosine kinase and plays an important role in hematopoiesis and lymphocyte development. […] Wang et al found over 60% of 82 leukemia cell lines were FLT3 positive (Wang Y et al., (2006) Journal of Experimental Hematology 14(3): 446-449). […] Thus, the compounds of the disclosure with high inhibitory effect on FLT3 function may be good candidates for leukemia treatment.

PI3K α isoform = PI3K α isoform (Homo sapiens, UniProt P42336)
AKT = assay: Inhibition of AKT phosphorylation; assay type: biochemical
Description: as §6

PI3K γ isoform = PI3K γ isoform (Homo sapiens, UniProt P48736); assay: PI3K isoform inhibition, γ isoform (method of CN104513254A)
CT-26 WT cells = assay: Anti-tumor effect in CT-26 WT tumor-bearing BALB/c mice; assay type: in vivo; settings: for Average tumor size: Anti-m-PD-1 10 mg/kg I.P., Compound A 40 mg/kg P.O.
Experimental: as §1, §2, §3, §4, §5
Tumor growth inhibition (TGI) was calculated based on tumor weight or tumor volume. Further, Zheng-Jun Jin's Q value was calculated using the formula Q=EA+B/(EA+EB−EA×EB) to assess the combined effect of the anti-PD-1 antibody and Compound A, wherein EA+B, EA, and EB referred to the TGIs of the combination therapy, anti-PD-1 administration and Compound A administration, respectively. A Q value higher than 1.15 indicated a synergistic or additive effect.

PI3K β isoform = PI3K β isoform (Homo sapiens, UniProt P42338)
[2] = human, in vivo; cited from earlier work

Sequence of PI3K γ isoform (P48736 whole entry, canonical isoform): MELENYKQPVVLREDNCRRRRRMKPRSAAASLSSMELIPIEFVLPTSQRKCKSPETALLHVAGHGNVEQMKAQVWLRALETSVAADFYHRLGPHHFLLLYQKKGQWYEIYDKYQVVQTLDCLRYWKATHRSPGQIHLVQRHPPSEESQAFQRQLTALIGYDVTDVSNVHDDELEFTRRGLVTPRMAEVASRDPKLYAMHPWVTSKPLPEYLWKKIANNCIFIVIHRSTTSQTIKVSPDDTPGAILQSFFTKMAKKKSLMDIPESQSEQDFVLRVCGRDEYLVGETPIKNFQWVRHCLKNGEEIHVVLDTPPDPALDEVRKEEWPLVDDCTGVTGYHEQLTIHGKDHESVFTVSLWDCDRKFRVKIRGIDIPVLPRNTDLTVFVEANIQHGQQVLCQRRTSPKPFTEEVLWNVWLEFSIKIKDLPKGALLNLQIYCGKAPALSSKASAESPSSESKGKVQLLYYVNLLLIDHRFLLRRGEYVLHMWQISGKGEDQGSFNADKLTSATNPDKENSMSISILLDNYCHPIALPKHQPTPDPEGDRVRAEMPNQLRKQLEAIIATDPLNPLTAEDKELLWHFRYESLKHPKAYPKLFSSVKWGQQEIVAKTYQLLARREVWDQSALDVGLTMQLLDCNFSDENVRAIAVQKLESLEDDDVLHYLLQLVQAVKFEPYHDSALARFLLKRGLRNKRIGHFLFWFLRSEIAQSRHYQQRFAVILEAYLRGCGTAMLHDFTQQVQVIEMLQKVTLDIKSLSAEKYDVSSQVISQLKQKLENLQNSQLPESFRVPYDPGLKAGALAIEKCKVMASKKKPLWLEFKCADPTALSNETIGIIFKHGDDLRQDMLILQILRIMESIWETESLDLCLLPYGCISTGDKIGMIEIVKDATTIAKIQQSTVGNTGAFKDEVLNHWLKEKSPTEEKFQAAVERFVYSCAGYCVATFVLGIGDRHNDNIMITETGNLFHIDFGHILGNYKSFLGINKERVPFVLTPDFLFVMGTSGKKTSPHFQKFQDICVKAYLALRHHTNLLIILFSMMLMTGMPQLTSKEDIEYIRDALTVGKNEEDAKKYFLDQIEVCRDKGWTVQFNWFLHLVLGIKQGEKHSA
Sequence of PI3K α isoform (P42336 whole entry, canonical isoform): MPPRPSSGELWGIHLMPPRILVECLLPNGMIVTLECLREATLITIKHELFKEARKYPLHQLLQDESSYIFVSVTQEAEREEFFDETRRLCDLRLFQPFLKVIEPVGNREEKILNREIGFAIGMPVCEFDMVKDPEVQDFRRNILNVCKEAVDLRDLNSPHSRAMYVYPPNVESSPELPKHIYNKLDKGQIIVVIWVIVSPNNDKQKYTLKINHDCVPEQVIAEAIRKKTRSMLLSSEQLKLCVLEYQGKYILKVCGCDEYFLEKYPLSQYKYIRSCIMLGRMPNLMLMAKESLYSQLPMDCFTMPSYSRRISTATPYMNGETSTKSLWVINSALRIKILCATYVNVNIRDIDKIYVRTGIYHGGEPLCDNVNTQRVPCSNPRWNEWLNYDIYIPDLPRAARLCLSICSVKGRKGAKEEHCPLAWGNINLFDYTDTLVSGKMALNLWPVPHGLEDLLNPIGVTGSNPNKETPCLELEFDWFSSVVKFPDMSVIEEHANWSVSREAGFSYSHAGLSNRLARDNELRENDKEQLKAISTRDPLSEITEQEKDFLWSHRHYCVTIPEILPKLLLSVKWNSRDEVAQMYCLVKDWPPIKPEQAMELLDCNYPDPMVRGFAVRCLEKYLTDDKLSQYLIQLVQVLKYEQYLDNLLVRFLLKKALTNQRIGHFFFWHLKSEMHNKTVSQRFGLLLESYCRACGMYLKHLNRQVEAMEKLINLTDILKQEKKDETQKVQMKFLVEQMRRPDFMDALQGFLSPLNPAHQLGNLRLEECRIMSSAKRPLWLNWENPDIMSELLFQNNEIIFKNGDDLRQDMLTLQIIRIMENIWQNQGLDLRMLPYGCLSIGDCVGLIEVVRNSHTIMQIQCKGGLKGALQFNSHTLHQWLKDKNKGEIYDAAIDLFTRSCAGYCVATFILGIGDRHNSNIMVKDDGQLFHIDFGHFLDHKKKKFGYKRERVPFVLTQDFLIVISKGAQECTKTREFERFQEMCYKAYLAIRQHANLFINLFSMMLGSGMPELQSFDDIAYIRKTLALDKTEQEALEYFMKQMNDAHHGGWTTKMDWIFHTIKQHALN
Sequence of PI3K α isoform (P27986 whole entry partner, canonical isoform): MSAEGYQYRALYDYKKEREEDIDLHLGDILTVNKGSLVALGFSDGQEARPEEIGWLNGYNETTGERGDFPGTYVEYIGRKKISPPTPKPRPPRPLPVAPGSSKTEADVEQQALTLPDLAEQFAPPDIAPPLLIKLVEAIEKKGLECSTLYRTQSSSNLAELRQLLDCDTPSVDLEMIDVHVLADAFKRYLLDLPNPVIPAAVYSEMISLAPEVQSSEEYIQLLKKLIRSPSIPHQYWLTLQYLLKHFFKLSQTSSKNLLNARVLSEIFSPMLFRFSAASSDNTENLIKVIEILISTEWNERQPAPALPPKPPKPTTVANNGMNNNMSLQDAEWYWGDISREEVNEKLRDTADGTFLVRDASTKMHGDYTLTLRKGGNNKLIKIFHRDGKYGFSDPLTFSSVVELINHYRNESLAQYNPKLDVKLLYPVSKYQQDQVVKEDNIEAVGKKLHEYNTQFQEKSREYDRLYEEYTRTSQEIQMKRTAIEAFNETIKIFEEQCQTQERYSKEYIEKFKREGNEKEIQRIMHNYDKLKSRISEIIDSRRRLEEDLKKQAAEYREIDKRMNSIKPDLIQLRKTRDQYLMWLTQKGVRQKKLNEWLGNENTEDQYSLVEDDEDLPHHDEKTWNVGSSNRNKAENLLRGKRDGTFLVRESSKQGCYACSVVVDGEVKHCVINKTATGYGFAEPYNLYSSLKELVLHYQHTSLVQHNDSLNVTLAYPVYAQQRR
Sequence of PI3K β isoform (P42338 whole entry, canonical isoform): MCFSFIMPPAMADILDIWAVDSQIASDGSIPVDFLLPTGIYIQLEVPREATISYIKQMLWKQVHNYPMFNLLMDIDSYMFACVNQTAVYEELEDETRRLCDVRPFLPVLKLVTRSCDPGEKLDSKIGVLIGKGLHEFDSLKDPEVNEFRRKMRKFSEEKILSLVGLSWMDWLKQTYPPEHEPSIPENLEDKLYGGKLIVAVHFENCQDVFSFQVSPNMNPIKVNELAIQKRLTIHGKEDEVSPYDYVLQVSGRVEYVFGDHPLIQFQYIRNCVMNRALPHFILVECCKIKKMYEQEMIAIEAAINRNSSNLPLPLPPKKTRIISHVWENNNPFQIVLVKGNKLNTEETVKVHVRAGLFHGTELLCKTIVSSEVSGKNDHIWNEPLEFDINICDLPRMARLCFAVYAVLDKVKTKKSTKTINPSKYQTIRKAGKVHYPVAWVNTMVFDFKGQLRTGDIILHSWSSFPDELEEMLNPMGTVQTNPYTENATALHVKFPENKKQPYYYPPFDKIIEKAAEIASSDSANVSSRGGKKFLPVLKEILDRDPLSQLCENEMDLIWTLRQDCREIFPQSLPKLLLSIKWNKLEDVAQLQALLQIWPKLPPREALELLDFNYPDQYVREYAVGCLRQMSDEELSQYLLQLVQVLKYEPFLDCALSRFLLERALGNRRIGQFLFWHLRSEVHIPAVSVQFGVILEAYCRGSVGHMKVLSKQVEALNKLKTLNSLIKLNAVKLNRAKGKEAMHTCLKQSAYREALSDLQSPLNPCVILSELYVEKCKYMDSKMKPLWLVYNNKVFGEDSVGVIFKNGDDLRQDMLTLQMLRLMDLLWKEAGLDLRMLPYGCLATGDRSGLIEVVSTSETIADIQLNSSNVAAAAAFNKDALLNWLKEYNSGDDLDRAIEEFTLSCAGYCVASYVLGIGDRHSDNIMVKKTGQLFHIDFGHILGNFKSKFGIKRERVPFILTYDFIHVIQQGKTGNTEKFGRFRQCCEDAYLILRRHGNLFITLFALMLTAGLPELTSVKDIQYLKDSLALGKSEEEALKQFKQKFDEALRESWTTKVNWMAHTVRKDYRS
Sequence of PI3K β isoform (P27986 whole entry partner, canonical isoform): as the sequence (P27986 whole entry partner, canonical isoform) above

c1cnc2ccc(Nc3nc(NC4CC4)c4nc[nH]c4n3)cc2c1 [Compound A]
Average body weight ([1]; Day 9 (allocation)): 15.59 g
Average body weight ([1]; Day 10): 15.16 g
Average body weight ([1]; Day 12): 15.86 g
Average body weight ([1]; Day 14): 15.91 g
Average body weight ([1]; Day 16): 16.46 g
Average body weight ([1]; Day 18): 16.75 g
Average body weight ([1]; Day 20): 17.01 g
Average body weight ([1]; Day 22): 17.72 g
Mice weight with the tumor weight deducted ([1]; Day 23): 16.22 g
Average body weight ([1]; Day 23): 18.15 g
EC50 (PDGFR): ~1000 nM
EC50, PI3K α isoform inhibition (PI3K α isoform): μM level
EC50 (AKT): ~100 nM
EC50, PI3K γ isoform inhibition (PI3K γ isoform): μM level
Average tumor size (CT-26 WT cells; Day 9 (allocation)): 176.94 mm^3
Average tumor size (CT-26 WT cells; Day 10): 272.49 mm^3
Average tumor size (CT-26 WT cells; Day 12): 492.26 mm^3
Average tumor size (CT-26 WT cells; Day 14): 672.51 mm^3
Average tumor size (CT-26 WT cells; Day 16): 876.22 mm^3
Average tumor size (CT-26 WT cells; Day 18): 1099.45 mm^3
Average tumor size (CT-26 WT cells; Day 20): 1348.89 mm^3
Average tumor size (CT-26 WT cells; Day 22): 1698.25 mm^3
Tumor volume based TGI (CT-26 WT cells; Day 23): 19.35%
Tumor weight based TGI (CT-26 WT cells; Day 23): 31.71%
Average tumor size (CT-26 WT cells; Day 23): 1870.89 mm^3
Tumor weight, Average (CT-26 WT cells; group average at Day 23, 8 mice): 1.93 g
Tumor weight, Mouse no. 1 (CT-26 WT cells; individual tumor isolated at Day 23, Mouse no. 1): 1.14 g
Tumor weight, Mouse no. 2 (CT-26 WT cells; individual tumor isolated at Day 23, Mouse no. 2): 2.11 g
Tumor weight, Mouse no. 3 (CT-26 WT cells; individual tumor isolated at Day 23, Mouse no. 3): 2.11 g
Tumor weight, Mouse no. 4 (CT-26 WT cells; individual tumor isolated at Day 23, Mouse no. 4): 0.89 g
Tumor weight, Mouse no. 5 (CT-26 WT cells; individual tumor isolated at Day 23, Mouse no. 5): 1.68 g
Tumor weight, Mouse no. 6 (CT-26 WT cells; individual tumor isolated at Day 23, Mouse no. 6): 2.16 g
Tumor weight, Mouse no. 7 (CT-26 WT cells; individual tumor isolated at Day 23, Mouse no. 7): 2.73 g
Tumor weight, Mouse no. 8 (CT-26 WT cells; individual tumor isolated at Day 23, Mouse no. 8): 2.64 g
EC50, PI3K β isoform inhibition (PI3K β isoform): μM level

Ipilimumab
Patients who experienced immune-related adverse effects [2]: 64%
